Data as given in patent US8481540B2, “Inhibitors of bruton's tyrosine kinase” (Hoffmann-La Roche Inc., priority 2010, dated 2013).
Structures can show the parent of a compound that is named as a salt. Where two headings read alike, the source gives them in different places.

System: B cells in human blood
Experiment: Inhibition of B cell activation in whole blood measured by CD69 expression
Format: cell-based
Procedure: Inhibition of B Cell Activation in Whole Blood Measured by CD69 Expression
A procedure to test the ability of Btk inhibitors to suppress B cell receptor-mediated activation of B cells in human blood is as follows:
Human whole blood (HWB) is obtained from healthy volunteers, with the following restrictions: 24 hr drug-free, non-smokers. Blood is collected by venipuncture into Vacutainer tubes anticoagulated with sodium heparin. Test compounds are diluted to […] the desired starting drug concentration in PBS (20×), followed by three-fold serial dilutions in 10% DMSO in PBS to produce a nine point dose-response curve. 5.5 μl of each compound dilution is added in duplicate to a 2 ml96-well V bottom plate (Analytical Sales and Services, #59623-23); 5.5 μl of 10% DMSO in PBS is added to control and no-stimulus wells. HWB (100 μl) is added to each well, and after mixing the plates are incubated at 37 C, 5% CO2, 100% humidity for 30 minutes. Goat F(ab′)2 anti-human IgM (Southern Biotech, #2022-14) (10 μl of a […] solution, 50 μg/ml final concentration) is added to each well (except the no-stimulus wells) with mixing and the plates are incubated for an additional 20 hours.
At the end of the 20 hour incubation, samples are incubated with florescent-probe-labeled anti-bodies (15 μl PE Mouse anti-Human CD20, BD Pharmingen, #555623, and/or 20 ul APC Mouse anti-Human CD69, BD Pharmingen #555533) for 30 minutes, at 37 C, 5% CO2, 100% humidity. Included are induced control, unstained and single stains for compensation adjustments and initial voltage settings. Samples are then lysed with 1 ml of 1× Pharmingen Lyse Buffer (BD Pharmingen #555899), and plates are centrifuged at 1800 rpm for 5 minutes. Supernatants are removed via suction and the remaining pellets are lysed again with another 1 ml of 1× Pharmingen Lyse Buffer, and plates are spun down as before. Supernatants are aspirated and remaining pellets are washed in FACs buffer (PBS+1% FBS). After a final spin, the supernantants are removed and pellets are resuspended in 180 μl of FACs buffer. Samples are transferred to a 96 well plate suitable to be run on the HTS 96 well system on the BD LSR II flow cytometer.
Using appropriate excitation and emission wavelengths for the fluorophores used, data are acquired and percent positive cell values are obtained using Cell Quest Software. Results are initially analyzed by FACS analysis software (Flow Jo). […] The IC50 values are calculated using XLfit software version 3, equation 201.
Representative compound data for this assay are listed below in Table II.

[1] = CD69-positive, CD20-positive cells after anti-IgM stimulation, human whole blood, 20 hours, read-out: Human Whole Blood

IC50 [1]	Compound	other results
485 nM	CN1CCC(c2ccc(Nc3cc(-c4cccc(-n5ccc6cc(C(C)(C)C#N)cc(F)c6c5=O)c4CO)nn(C)c3=O)nc2)C1 (stereo in doubt) [I-89, 2-[8-Fluoro-2-(2-hydroxymethyl-3-{1-methyl-5-[5-((S)-1-methyl-pyrrolidin-3-yl)-pyridin-2-ylamino]-6-oxo-1,6-dihydro-pyridazin-3-yl}-phenyl)-1-oxo-1,2-dihydro-isoquinolin-6-yl]-2-methyl-propionitrile]	
	Cn1nc(-c2cccc(-n3ncc4cc(C(C)(C)C)cc(F)c4c3=O)c2CO)cc(Nc2ccc(C(=O)N3CCOCC3)cn2)c1=O [I-2, 6-tert-Butyl-8-fluoro-2-(2-hydroxymethyl-3-{1-methyl-5-[5-(morpholine-4-carbonyl)-pyridin-2-ylamino]-6-oxo-1,6-dihydro-pyridazin-3-yl}-phenyl)-2H-phthalazin-1-one]	IC50 (Homo sapiens, 20 h, read-out: Human Whole Blood): 14 nM
	CN(C)C(=O)c1ccc(Nc2cc(-c3cccc(-n4ncc5cc(C(C)(C)C)cc(F)c5c4=O)c3CO)nn(C)c2=O)nc1 [I-10, 6-{6-[3-(6-tert-Butyl-8-fluoro-1-oxo-1H-phthalazin-2-yl)-2-hydroxymethyl-phenyl]-2-methyl-3-oxo-2,3-dihydro-pyridazin-4-ylamino}-N,N-dimethyl-nicotinamide]	IC50 (Homo sapiens, 20 h, read-out: Human Whole Blood, CD69-positive, CD20-positive cells after anti-IgM stimulation, human whole blood, 20 hours): 19 nM
52 nM	Cn1nc(-c2cccc(-n3ncc4cc(C(C)(C)C)cc(F)c4c3=O)c2CO)cc(Nc2ccc(OC(C)(C)CO)cn2)c1=O [I-12, 6-tert-butyl-8-fluoro-2-(3-{5-[5-(2-hydroxy-1,1-dimethyl-ethoxy)-pyridin-2-ylamino]-1-methyl-6-oxo-1,6-dihydro-pyridazin-3-yl}-2-hydroxymethyl-phenyl)-2H-phthalazin-1-one]	
9 nM	Cn1nc(-c2cccc(-n3ncc4cc(C(C)(C)C)cc(F)c4c3=O)c2CO)cc(Nc2ccc(OC(C)(C)CN3CCC3)cn2)c1=O [I-13, 2-(3-{5-[5-(2-azetidin-1-yl-1,1-dimethyl-ethoxy)-pyridin-2-ylamino]-1-methyl-6-oxo-1,6-dihydro-pyridazin-3-yl}-2-hydroxymethyl-phenyl)-6-tert-butyl-8-fluoro-2H-phthalazin-1-one]	
65 nM	Cn1nc(-c2cccc(-n3ncc4cc(C(C)(C)C)cc(F)c4c3=O)c2CO)cc(Nc2ccc(OCC(C)(C)O)cn2)c1=O [I-14, 6-tert-butyl-8-fluoro-2-(2-hydroxymethyl-3-{5-[5-(2-hydroxy-2-methyl-propoxy)-pyridin-2-ylamino]-1-methyl-6-oxo-1,6-dihydro-pyridazin-3-yl}-phenyl)-2H-phthalazin-1-one]	
163 nM	Cn1nc(-c2cccc(-n3ccc4cc(C(C)(C)C#N)cc(F)c4c3=O)c2CO)cc(Nc2ccc(C(=O)N3CCOCC3)cn2)c1=O [I-15, 2-[8-fluoro-2-(2-hydroxymethyl-3-{1-methyl-5-[5-(morpholine-4-carbonyl)-pyridin-2-ylamino]-6-oxo-1,6-dihydro-pyridazin-3-yl}-phenyl)-1-oxo-1,2-dihydro-isoquinolin-6-yl]-2-methyl-propionitrile]	
26 nM	COC[C@H](O)COc1ccc(Nc2cc(-c3cccc(-n4ncc5cc(C(C)(C)C)cc(F)c5c4=O)c3CO)nn(C)c2=O)nc1 [I-16, 6-tert-Butyl-8-fluoro-2-(3-{5-[5-((S)-2-hydroxy-3-methoxy-propoxy)-pyridin-2-ylamino]-1-methyl-6-oxo-1,6-dihydro-pyridazin-3-yl}-2-hydroxymethyl-phenyl)-2H-phthalazin-1-one]	
41 nM	COC[C@@H](O)COc1ccc(Nc2cc(-c3cccc(-n4ncc5cc(C(C)(C)C)cc(F)c5c4=O)c3CO)nn(C)c2=O)nc1 [I-17]	
3 nM	CN1CCC[C@H]1c1ccc(Nc2cc(-c3cccc(-n4ncc5cc(C(C)(C)C)cc(F)c5c4=O)c3CO)nn(C)c2=O)nc1 [I-18, 6-tert-Butyl-8-fluoro-2-(2-hydroxymethyl-3-{1-methyl-5-[5-((S)-1-methyl-pyrrolidin-2-yl)-pyridin-2-ylamino]-6-oxo-1,6-dihydro-pyridazin-3-yl}-phenyl)-2H-phthalazin-1-one]	
7 nM	CN1CCC[C@@H]1c1ccc(Nc2cc(-c3cccc(-n4ncc5cc(C(C)(C)C)cc(F)c5c4=O)c3CO)nn(C)c2=O)nc1 [I-19, 6-tert-Butyl-8-fluoro-2-(2-hydroxymethyl-3-{1-methyl-5-[5-((R)-1-methyl-pyrrolidin-2-yl)-pyridin-2-ylamino]-6-oxo-1,6-dihydro-pyridazin-3-yl}-phenyl)-2H-phthalazin-1-one]	
109 nM	Cn1nc(-c2cccc(-n3ncc4cc(C(C)(C)C)cc(F)c4c3=O)c2CO)cc(Nc2ccc(C(=O)N3CCC(C)(O)CC3)cn2)c1=O [I-21, 6-tert-butyl-8-fluoro-2-(2-hydroxymethyl-3-{5-[5-(4-hydroxy-4-methyl-piperidine-1-carbonyl)-pyridin-2-ylamino]-1-methyl-6-oxo-1,6-dihydro-pyridazin-3-yl}-phenyl)-2H-phthalazin-1-one]	
33 nM	CN1CC2(C1)CN(c1ccc(Nc3cc(-c4cccc(-n5ncc6cc(C(C)(C)C)cc(F)c6c5=O)c4CO)nn(C)c3=O)nc1)C2 [I-22, 6-tert-butyl-8-fluoro-2-(2-hydroxymethyl-3-{1-methyl-5-[5-(6-methyl-2,6-diaza-spiro[3.3]hept-2-yl)-pyridin-2-ylamino]-6-oxo-1,6-dihydro-pyridazin-3-yl}-phenyl)-2H-phthalazin-1-one]	
60 nM	CCS(=O)(=O)c1ccc(Nc2cc(-c3cccc(-n4ncc5cc(C(C)(C)C)cc(F)c5c4=O)c3CO)nn(C)c2=O)nc1 [I-23, 6-tert-Butyl-2-{3-[5-(5-ethanesulfonyl-pyridin-2-ylamino)-1-methyl-6-oxo-1,6-dihydro-pyridazin-3-yl]-2-hydroxymethyl-phenyl}-8-fluoro-2H-phthalazin-1-one]	
116 nM	CC(C)S(=O)(=O)c1ccc(Nc2cc(-c3cccc(-n4ncc5cc(C(C)(C)C)cc(F)c5c4=O)c3CO)nn(C)c2=O)nc1 [I-24, 6-tert-Butyl-8-fluoro-2-(2-hydroxymethyl-3-{1-methyl-6-oxo-5-[5-(propane-2-sulfonyl)-pyridin-2-ylamino]-1,6-dihydro-pyridazin-3-yl}-phenyl)-2H-phthalazin-1-one]	
152 nM	Cn1nc(-c2cccc(-n3ncc4cc(C(C)(C)C)cc(F)c4c3=O)c2CO)cc(Nc2ccc(S(=O)(=O)CCO)cn2)c1=O [I-26, 6-tert-Butyl-8-fluoro-2-(3-{5-[5-(2-hydroxyethanesulfonyl)-pyridin-2-ylamino]-1-methyl-6-oxo-1,6-dihydro-pyridazin-3-yl}-2-hydroxymethyl-phenyl)-2H-phthalazin-1-one]	
89 nM	CC(C)N1CCN(c2ccc(Nc3cc(-c4cccc(-n5ncc6cc(C(C)(C)C)cc(F)c6c5=O)c4CO)nn(C)c3=O)nc2)CC1 [I-27, 6-tert-Butyl-8-fluoro-2-(2-hydroxymethyl-3-{5-[5-(4-isopropyl-piperazin-1-yl)-pyridin-2-ylamino]-1-methyl-6-oxo-1,6-dihydro-pyridazin-3-yl}-phenyl)-2H-phthalazin-1-one HCl]	

Compound	IC50 [1]	other results
CN(C)C(=O)c1ccc(Nc2cc(-c3cccc(-n4ncc5cc(C(C)(C)C)cc(F)c5c4=O)c3CO)nn(C)c2=O)nc1 [I-20]	15 nM	
